The conditions of the series: pH 7.4.

`Cc1ncc(-c2ccnc(Nc3ccc(N4CCOCC4)cc3)n2)n1C(C)C`: the logD (commonly lipophilicity at a set pH, counting ionised and neutral species) came out at 2.88. Compound `COc1cc(OC)c(S(=O)(=O)N2c3ccccc3CCC2C)cc1NC(C)=O` (stereo not given) returned a logD of 1.97. Then `COc1ccc(N2CCN(C(=O)[C@@H]3CCCC[C@H]3C(=O)NC3(C#N)CC3)CC2)cc1`, with 1.74; and `N#CC1(NC(=O)[C@@H]2CCCC[C@H]2C(=O)N2CCc3oc4ccccc4c3C2)CC1`, with 3.01. For the compound `CN1CCC(c2cc(N3CCOCC3)nc(-c3cccc4[nH]ccc34)n2)(S(C)(=O)=O)CC1`, the logD turned out to be 1.9. Regarding `CC(=O)c1ncccc1NC(=O)C1CCC(N2C(=O)[C@@H]3[C@@H]4CC[C@@H](C4)[C@@H]3C2=O)CC1` (stereo not given in full), the logD amounted to 3.01. Then `CCn1c(=O)c2c(O)cc(=O)oc2c2ccccc21`, with 1.13. Consider `C[C@H]1O[C@@H](n2cnc3c(N)nc(O[C@H]4CC[C@H](C)CC4)nc32)[C@H](O)[C@@H]1O`, for which the logD stood at 2.35. Under `N#CC1(NC(=O)[C@@H]2CCCC[C@H]2C(=O)N2CCN(c3nc4ccncc4s3)CC2)CC1` stands 1.6; under `CS(=O)(=O)Cc1cc(N2CCOCC2)nc(-c2ccccc2)n1`, 1.94. The compound `CCOc1cccc2c3c([nH]c12)CCN(C(=O)[C@@H]1CCCC[C@H]1C(=O)NC1(C#N)CC1)C3` registered a logD of 3.1. Under `CCNC(=O)c1cc2c(-n3ccc(C(F)(F)F)n3)c(-c3cncc(-c4n[nH]c(=O)o4)c3)cnc2[nH]1` stands 1.65; under `COc1ccc(N(C(=O)c2ccccc2)C(C(=O)NC2CCCC2)c2ccccc2F)c(OC)c1` (stereo not given), 3.86. In turn, `CCNC(=O)c1cc2c(-n3ccc(C(F)(F)F)n3)c(-c3cc(-c4n[nH]c(=O)o4)cnc3OC)cnc2[nH]1` displayed a logD of 2.91. Take `N#CC1(NC(=O)[C@@H]2CCCC[C@H]2C(=O)N2CCN(c3nc(-c4ccccc4)cs3)CC2)CC1`: the logD is 3.5. Regarding `COc1cc(N2CCN(C(=O)[C@@H]3CCCC[C@H]3C(=O)NC3(C#N)CC3)[C@H](C)C2)ccc1C1CC1`, the logD was found to be 3.49. `COc1c/c(=C2\C=c3ccccc3=N2)[nH]/c1=C\c1[nH]c(C)cc1C` gave a log distribution coefficient (logD) of 2.55. Under `C[C@H](C#N)NC(=O)[C@@H]1CCCC[C@H]1C(=O)N1CCc2[nH]c3ccc(F)cc3c2C1` stands 3.1; under `N#CC1(NC(=O)[C@@H]2CCCC[C@H]2C(=O)N2CCc3[nH]c4cccc(F)c4c3C2)CC1`, 3.2. Under `C[C@H]1O[C@@H](n2cnc3c(N)nc(OC4CCCC4)nc32)[C@H](O)[C@H]1Cl` stands 3.18. Under `COc1ccc(N2CCN(C(=O)[C@@H]3CCCC[C@H]3C(=O)NCC#N)CC2)cc1` stands 1.6; under `N#Cc1cccnc1-c1ccc(C(=O)Nc2ccccc2N)cc1`, 1.58; under `N#CC1(NC(=O)[C@@H]2CCCC[C@H]2C(=O)N2CCN(c3nc4ncccc4s3)CC2)CC1`, 1.4. In the case of `CS(=O)(=O)c1ccc(N2CCN(C(=O)[C@@H]3CCCC[C@H]3C(=O)NCC#N)CC2)cc1`, the logD came out at 0.67. Under `Cc1nc2nc[nH]n2c(=O)c1CCOC(=O)c1c(F)cccc1F` stands 0.16; under `C[C@@H]1CN(c2noc(C3CC3)n2)CCN1c1ncc(OCc2ccncc2C#N)cn1`, 3.1. Regarding `C[C@@H]1CN(c2nc(C(F)(F)F)no2)CCN1c1ncc(OCc2ccncc2C#N)cn1`, the logD came out at 3.1. As for `CC(C)(C#N)c1cnc(N2CCN(C(=O)[C@@H]3CCCC[C@H]3C(=O)NC3(C#N)CC3)CC2)s1`, the logD worked out at 1.9. On to `N#CCNC(=O)[C@@H]1CCCC[C@H]1C(=O)N1CCN(c2ccc(C#N)cc2)CC1`, for which the logD turned out to be 1.79.

Compound `N#CC1(NC(=O)[C@@H]2CCCC[C@H]2C(=O)N2CCN(c3nc4cnccc4s3)CC2)CC1` gave a logD of 1.66. For `CCCN(c1cccnc1)P(=O)(c1ccccc1)c1ccccc1`, the logD amounted to 2.6. Under `CC(C)c1nc(N2CCN(c3ncc(OCc4ccncc4C#N)cn3)[C@H](C)C2)no1` stands 3.3; under `Cc1nnc(C)c2cc(N3CCN(C(=O)[C@@H]4CCCC[C@H]4C(=O)NC4(C#N)CC4)[C@H](C)C3)ccc12`, 1.93. Under `CC(C)Oc1cc(OCCN2CCOCC2)cc2ncnc(Nc3c(Cl)ccc4c3OCO4)c12` stands 3.68; under `Cc1nn(C)c2cc(N3CCN(C(=O)[C@@H]4CCCC[C@H]4C(=O)NC4(C#N)CC4)[C@H](C)C3)ccc12`, 2.7. `NS(=O)(=O)c1ccc(Nc2nccc(-c3cnc4ccccn34)n2)cc1` came in with a logD of 2.7. Under `C[C@@H](Oc1ccc(S(C)(=O)=O)cc1C(=O)N1CCN(c2ncc(C(F)(F)F)cc2F)CC1)C(F)(F)F` stands 3.49; under `COc1ccc(N(C(=O)c2occc2Cl)C(C(=O)NC[C@@H](C)O)c2ccccc2F)c(OC)c1` (stereo not given in full), 2.18; under `C[C@H]1O[C@@H](n2cnc3c(N)nc(OCC4CC45CC5)nc32)[C@H](O)[C@@H]1O` (stereo not given in full), 1.78. Under `N#CC1(NC(=O)[C@@H]2CCCC[C@H]2C(=O)N2CCc3[nH]c4ncccc4c3C2)CC1` stands 2.13. Compound `CS(=O)(=O)C1(c2cc(N3CCOCC3)nc(-c3cccc4[nH]ccc34)n2)CCOCC1` yielded a logD of 2.4. Under `CCCSc1ncccc1C(=O)NC1CCCCC1` stands 3.24; under `Cc1cc(C(C)Nc2ccccc2)c2nc(N3CCOCC3)cc(=O)n2c1` (stereo not given), 3.6. Then `C[C@H]1COCCN1c1cc(CS(C)(=O)=O)nc(-c2ccc3[nH]ccc3c2)n1`, with 2.38; and `C[C@@H](c1ncncc1F)[C@](O)(Cn1cncn1)c1ccc(F)cc1F`, with 1.7. Then `Cc1ncc(-c2ccnc(Nc3ccc(S(=O)(=O)CCCN(C)C)cc3)n2)n1C(C)C`, with 1.32. Consider `CN(C(=O)Cc1ccc(-n2cnnn2)cc1)[C@H]1CCN(Cc2ccc(C(F)(F)F)cc2)C[C@H]1F`, for which the logD was found to be 3.3. Under `COc1cc(N2CC3COCC(C2)N3)ccc1Nc1ncc(Cl)c(-c2cnc3ccccn23)n1` stands 3; under `CC(C)(C)OC(=O)N1CCN(c2ccc(OCc3ccc(S(C)(=O)=O)cc3)cc2)CC1`, 3.9; under `Cc1ncc(-c2ccnc(Nc3ccc(N4CCN(S(C)(=O)=O)CC4)cc3)n2)n1C(C)C`, 2.57.
